Experimental findings from PubChem BioAssay (NCI) are described below.

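Tested at 5 concentrations; 48 h exposure; 96-well plates; endpoints linearly interpolated, else capped at highest concentration. TGI is the concentration that stops growth completely.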

Some test systems named below: 786-0 renal; BT-549 breast; DU-145 prostate; KM12 colon; M14 melanoma; MDA-MB-231 breast; MDA-MB-435; MDA-N; SF-268 CNS; SK-MEL-2 melanoma; SNB-19 CNS; SR leukemia.
Assay in all cases: NCI-60 cell line screen, 48 h

In the case of `c1ccc(-c2nn(-c3ccccc3)[n+](-c3ccccc3)n2)cc1`, the TGI in the assay with 786-0 renal is > 93.5 µM; in the assay on BT-549 breast, > 100 µM; with DU-145 prostate, > 100 µM; with KM12 colon, > 81.7 µM; with M14 melanoma it was 47.5 µM; in the assay with MDA-MB-231 breast, > 100 µM. Also, the TGI in the assay with MDA-MB-435 was 23.5 µM; with MDA-N it was 31.5 µM; in the assay on SF-268 CNS it was > 38.8 µM; in the assay with SK-MEL-2 melanoma, > 80.1 µM; with SNB-19 CNS it was > 100 µM; in the assay with SR leukemia, > 44.4 µM.
For `O=S1C2=C(Cc3ccccc3)C(Cc3ccccc3)=C1CCc1cccc(c1)CC2`, the TGI in the assay on 786-0 renal was 28.9 µM; with BT-549 breast, 27.2 µM; in the assay on DU-145 prostate, 30.3 µM; in the assay on KM12 colon, 26.7 µM; in the assay with M14 melanoma, 29 µM; with MDA-MB-231 breast, 31.3 µM. The TGI was 27.5 µM with MDA-MB-435; 30.6 µM with MDA-N; 31.8 µM with SF-268 CNS; 31.1 µM with SK-MEL-2 melanoma; 28.1 µM in the assay with SNB-19 CNS; 90.2 µM with SR leukemia.
In the case of `CC12Cc3cc4c(cc3C1(c1ccc([N+](=O)[O-])cc1)OCCO2)OCO4` (centres undefined), the TGI with 786-0 renal is > 100 µM; with BT-549 breast, 91.9 µM; in the assay with DU-145 prostate, > 100 µM; with KM12 colon, > 100 µM; with M14 melanoma it was > 100 µM; in the assay on MDA-MB-231 breast, 42.3 µM. Besides, the TGI is > 100 µM with MDA-MB-435; > 100 µM in the assay with MDA-N; 71.6 µM in the assay with SF-268 CNS; > 100 µM in the assay on SK-MEL-2 melanoma; 73.2 µM in the assay on SNB-19 CNS; > 100 µM in the assay with SR leukemia.
With `C=CC[C@H](C)CCC(=O)N1[C@H]2CC3CC[C@@]2(CS1(=O)=O)C3(C)C`, the TGI in the assay with 786-0 renal, with BT-549 breast, with DU-145 prostate, in the assay with KM12 colon, with M14 melanoma and in the assay on MDA-MB-231 breast was > 100 µM throughout. For the same compound, the TGI with MDA-MB-435, with MDA-N, with SF-268 CNS, in the assay with SK-MEL-2 melanoma, in the assay on SNB-19 CNS and in the assay with SR leukemia was > 100 µM each time.
For `Cc1cccc2c1NC(=S)[C@@H]1CCCN1C2=O`, the TGI in the assay with 786-0 renal, in the assay with BT-549 breast, in the assay on DU-145 prostate, with KM12 colon, with M14 melanoma and with MDA-MB-231 breast was > 100 µM in each case. Moreover, the TGI in the assay with MDA-MB-435, in the assay with MDA-N, with SF-268 CNS, in the assay on SK-MEL-2 melanoma, in the assay on SNB-19 CNS and with SR leukemia was > 100 µM throughout.
Turning to `Clc1ccc(C2NN=C3c4ccccc4OCC32)cc1` (centres undefined), the TGI in the assay with 786-0 renal is 29.5 µM; in the assay on BT-549 breast, 79.3 µM; with DU-145 prostate, > 95.4 µM; in the assay with KM12 colon, > 37.9 µM; in the assay with M14 melanoma it was > 45.1 µM; with MDA-MB-231 breast it was 6.91 µM. The TGI with MDA-MB-435 was > 21.3 µM; in the assay with MDA-N, 2.56 µM; in the assay on SF-268 CNS, > 81 µM; in the assay on SK-MEL-2 melanoma it was 15.5 µM; in the assay with SNB-19 CNS it was > 100 µM; in the assay on SR leukemia, 5.67 µM.
As for `O=[N+]([O-])c1ccc2nc(/C=C(\O)c3ccc(F)cc3)c(/C=C(\O)c3ccc(F)cc3)nc2c1`, the TGI with 786-0 renal is 39.7 µM; in the assay with BT-549 breast, 91.5 µM; in the assay on DU-145 prostate, > 100 µM; in the assay with KM12 colon, > 100 µM; with M14 melanoma it was > 100 µM; in the assay on MDA-MB-231 breast it was 69.6 µM. Besides, the TGI in the assay on MDA-MB-435 was > 100 µM; in the assay with MDA-N it was > 100 µM; in the assay on SF-268 CNS, > 100 µM; in the assay with SK-MEL-2 melanoma it was 45.2 µM; in the assay on SNB-19 CNS it was > 100 µM; in the assay with SR leukemia it was 40.9 µM.
